Columns and labels:
[1] = target: T1, recombinant human ALK5 (TGF-βR1) protein (Homo sapiens, UniProt P36897); experiment: Biochemical ALK5 (TGF-βR1) assay to measure pKi (LANCE Ultra ULight kinase assay); conditions: apparent pKi from pIC50 by Cheng-Prusoff, read-out: ALK5 pKi (converted)
T1 construct: purchased Life Technologies PR9075A
T1 sequence (P36897 34-503): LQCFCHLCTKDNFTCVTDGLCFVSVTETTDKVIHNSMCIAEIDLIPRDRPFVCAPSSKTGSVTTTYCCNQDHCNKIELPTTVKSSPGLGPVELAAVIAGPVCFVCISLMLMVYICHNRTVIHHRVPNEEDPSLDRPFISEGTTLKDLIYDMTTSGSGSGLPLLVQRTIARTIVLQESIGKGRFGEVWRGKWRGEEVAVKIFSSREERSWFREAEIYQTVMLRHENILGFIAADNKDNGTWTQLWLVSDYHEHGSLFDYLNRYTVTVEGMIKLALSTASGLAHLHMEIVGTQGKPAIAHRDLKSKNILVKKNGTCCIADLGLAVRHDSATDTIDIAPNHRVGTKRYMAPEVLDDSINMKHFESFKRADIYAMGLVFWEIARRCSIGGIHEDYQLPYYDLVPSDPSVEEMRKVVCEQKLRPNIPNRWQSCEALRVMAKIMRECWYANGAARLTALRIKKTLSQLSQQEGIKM
Method in brief: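 Compounds (10 μM to 25 pM) were preincubated 60 min at room temperature with enzyme, then reactions were started with ATP (125 μM stock, 5× final) and run 60 min at 37 °C. EDTA-containing Eu-anti-phospho-Topo IIα (Thr1342) antibody stopped the reaction; TR-FRET read at 665 nm. pIC50 from 4-parameter fit, converted to pKi via Cheng-Prusoff.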

[2] = tested on: TGF-β-stimulated SMAD3 phosphorylation in BEAS-2B cells; experiment: Cellular ALK5 potency assay, inhibition of TGF-β stimulated pSMAD3 formation in BEAS-2B cells; assay type: cell-based; conditions: Homo sapiens; inhibition of TGF-β stimulated pSMAD3 formation, BEAS-2B cells; read-out: BEAS2B pIC50 (converted)
Method in brief: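 Cells seeded overnight; rinse with supplemented HBSS; compound 1 h at 37 °C; TGF-β 10 ng/mL final, 30 min; lyse; AlphaLISA acceptor and detector beads 2 h apart, read next day. Potency expressed as pIC50.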

SMILES | Ki [1] [nM] | IC50 [2] [nM]
Cc1cccc(-c2n[nH]cc2-c2ccc3ncc(-c4ncn5c4CNCC5)cc3n2)n1 [Compound 118, 2-[3-(6-methyl-2-pyridyl)-1H-pyrazol-4-yl]-7-(5,6,7,8-tetrahydroimidazo[1,5-a]pyrazin-1-yl)-1,5-naphthyridine] | 0.0398 to 0.316 | 25.1 to 158
Cc1cccc(-c2[nH]nnc2-c2ccc3ncc(N4CCC(N5CCN(C)CC5)CC4)cc3n2)n1 [Compound 119, 7-[4-(4-methylpiperazin-1-yl)-1-piperidyl]-2-[5-(6-methyl-2-pyridyl)-1H-triazol-4-yl]-1,5-naphthyridine] | 0.0398 to 0.316 | 200 to 1260
Cc1cccc(-c2nc3ccccn3c2-c2ccc3ncc(NCCN4CCN(C(C)C)CC4)cc3n2)n1 [Compound 120, N-(2-(4-isopropylpiperazin-1-yl)ethyl)-6-(2-(6-methylpyridin-2-yl)imidazo[1,2-a]pyridin-3-yl)-1,5-naphthyridin-3-amine] | 0.0398 to 0.316 | 25.1 to 158
Cc1cccc(-c2n[nH]cc2-c2ccc3ncc(Nc4ccc(N5CCNCC5)cn4)cc3c2)n1 [Compound 121, 6-[3-(6-methyl-2-pyridyl)-1H-pyrazol-4-yl]-N-(5-piperazin-1-yl-2-pyridyl)quinolin-3-amine] | < 0.0316 | 25.1 to 158
Cc1cccc(-c2[nH]cnc2-c2ccc3ncc(NCCN4CCNCC4)cc3c2)n1 [Compound 122, 6-[5-(6-methyl-2-pyridyl)-1H-imidazol-4-yl]-N-(2-piperazin-1-ylethyl)quinolin-3-amine] | 0.0398 to 0.316 | 25.1 to 158
Cc1nc(-c2n[nH]cc2-c2ccc3ncc(-c4cnc5n4CCCN5)cc3n2)ccc1F [Compound 123, 2-[3-(5-fluoro-6-methyl-2-pyridyl)-1H-pyrazol-4-yl]-7-(5,6,7,8-tetrahydroimidazo[1,2-a]pyrimidin-3-yl)-1,5-naphthyridine] | 0.0398 to 0.316 | 25.1 to 158
Cc1cccc(-c2n[nH]cc2-c2ccc3ncc(N4CCC5(CCN(C(=O)OCc6ccccc6)C5)C4)cc3n2)n1 (stereo not shown) [Compound 124, benzyl 7-[6-[3-(6-methyl-2-pyridyl)-1H-pyrazol-4-yl]-1,5-naphthyridin-3-yl]-2,7-diazaspiro[4.4]nonane-2-carboxylate] | 0.0398 to 0.316 | 25.1 to 158
CNCCn1cc(-c2cnc3ccc(-c4nn[nH]c4-c4cccc(C)n4)cc3c2)cn1 [Compound 125, N-methyl-2-(4-(6-(5-(6-methylpyridin-2-yl)-1H-1,2,3-triazol-4-yl)quinolin-3-yl)-1H-pyrazol-1-yl)ethan-1-amine] | < 0.0316 | 25.1 to 158
Cc1cccc(-c2n[nH]cc2-c2ccc3ncc(CO)cc3n2)n1 [Compound 126, [6-[3-(6-methyl-2-pyridyl)-1H-pyrazol-4-yl]-1,5-naphthyridin-3-yl]methanol] | 0.0398 to 0.316 | 25.1 to 158
CNCCn1cc(-c2cnc3ccc(-c4c[nH]nc4-c4cccc(C)n4)nc3c2OC)cn1 [Compound 127, 2-[4-[4-methoxy-6-[3-(6-methyl-2-pyridyl)-1H-pyrazol-4-yl]-1,5-naphthyridin-3-yl]pyrazol-1-yl]-N-methyl-ethanamine] | < 0.0316 | 25.1 to 158
Cc1cccc(-c2[nH]cnc2-c2ccc3ncc(Nc4nc5n(n4)CCN(C(C)C)C5)cc3c2)n1 [Compound 128, N-(7-isopropyl-6,8-dihydro-5H-[1,2,4]triazolo[1,5-a]pyrazin-2-yl)-6-[5-(6-methyl-2-pyridyl)-1H-imidazol-4-yl]quinolin-3-amine] | 0.0398 to 0.316 | 25.1 to 158
Cc1cccc(-c2[nH]cnc2-c2ccc3ncc(NCCN4CC5CNC5C4)cc3c2)n1 (stereo not shown) [Compound 129, N-[2-(3,6-diazabicyclo[3.2.0]heptan-3-yl)ethyl]-6-[5-(6-methyl-2-pyridyl)-1H-imidazol-4-yl]quinolin-3-amine] | 0.0398 to 0.316 | 200 to 1260
Cc1cccc(-c2n[nH]cc2-c2ccc3ncc(-c4nnn5c4CNCC5)cc3n2)n1 [Compound 130, 2-[3-(6-methyl-2-pyridyl)-1H-pyrazol-4-yl]-7-(4,5,6,7-tetrahydrotriazolo[1,5-a]pyrazin-3-yl)-1,5-naphthyridine] | 0.0398 to 0.316 | 25.1 to 158
Cc1cccc(-c2[nH]cnc2-c2ccc3ncc(N4CC5(CNC5)C4)cc3c2)n1 [Compound 131, 3-(2,6-diazaspiro[3.3]heptan-2-yl)-6-[5-(6-methyl-2-pyridyl)-1H-imidazol-4-yl]quinoline] | < 0.0316 | 25.1 to 158
Cc1cccc(-c2n[nH]cc2-c2ccc3ncc(N4CCN(Cc5cccnc5)CC4)cc3n2)n1 [Compound 132, 2-[3-(6-methyl-2-pyridyl)-1H-pyrazol-4-yl]-7-[4-(3-pyridylmethyl)piperazin-1-yl]-1,5-naphthyridine] | 0.0398 to 0.316 | 25.1 to 158
Cc1cccc(-c2n[nH]cc2-c2ccc3ncc(-n4cc(-c5ccccc5)nn4)cc3n2)n1 [Compound 133, 2-[3-(6-methyl-2-pyridyl)-1H-pyrazol-4-yl]-7-(4-phenyltriazol-1-yl)-1,5-naphthyridine] | 0.398 to 3.16 | 25.1 to 158

Continued, in another order:

Ki [1] [nM] | SMILES | IC50 [2] [nM]
0.0398 to 0.316 | Cc1cccc(-c2n[nH]cc2-c2ccc3ncc(-c4nc5c([nH]4)CCNC5)cc3n2)n1 [Compound 134, 2-[3-(6-methyl-2-pyridyl)-1H-pyrazol-4-yl]-7-(4,5,6,7-tetrahydro-1H-imidazo[4,5-c]pyridin-2-yl)-1,5-naphthyridine] | 1580 to 10000
< 0.0316 | Cc1nc(-c2n[nH]cc2-c2ccc3ncc(N4CC[C@H](N(C)C)C4)cc3n2)ccc1F [Compound 135, (3S)-1-[6-[3-(5-fluoro-6-methyl-2-pyridyl)-1H-pyrazol-4-yl]-1,5-naphthyridin-3-yl]-N,N-dimethyl-pyrrolidin-3-amine] | 25.1 to 158
0.0398 to 0.316 | Cc1cccc(-c2[nH]cnc2-c2ccc3ncc(-c4cncc(C(=O)OC5CCNCC5)c4)cc3c2)n1 [Compound 136, 4-piperidyl 5-[6-[5-(6-methyl-2-pyridyl)-1H-imidazol-4-yl]-3-quinolyl]pyridine-3-carboxylate] | 200 to 1260
0.0398 to 0.316 | COC(=O)C1CN(CCNc2cnc3ccc(-c4c[nH]nc4-c4cccc(C)n4)nc3c2)CCN1 (stereo not shown) [Compound 137, methyl 4-[2-[[6-[3-(6-methyl-2-pyridyl)-1H-pyrazol-4-yl]-1,5-naphthyridin-3-yl]amino]ethyl]piperazine-2-carboxylate] | 1580 to 10000
0.0398 to 0.316 | Cc1cccc(-c2[nH]cnc2-c2ccc3ncc(C4=CC(N)CCC4)cc3c2)n1 (stereo not shown) [Compound 138, 3-[6-[5-(6-methyl-2-pyridyl)-1H-imidazol-4-yl]-3-quinolyl]cyclohex-2-en-1-amine] | 25.1 to 158
0.0398 to 0.316 | Cc1cccc(-c2n[nH]cc2-c2ccc3ncc(-c4cc(C(F)(F)F)n[nH]4)cc3n2)n1 [Compound 139, 2-[3-(6-methyl-2-pyridyl)-1H-pyrazol-4-yl]-7-[3-(trifluoromethyl)-1H-pyrazol-5-yl]-1,5-naphthyridine] | 25.1 to 158
< 0.0316 | Cc1cccc(-c2n[nH]cc2-c2ccc3ncc(N4CCC(N(C)C)CC4)cc3n2)n1 [Compound 141, N,N-dimethyl-1-[6-[3-(6-methyl-2-pyridyl)-1H-pyrazol-4-yl]-1,5-naphthyridin-3-yl]piperidin-4-amine] | 25.1 to 158
